According to US9221808B2, “Pyridylthiazole-based ureas as inhibitors of Rho associated protein kinase (ROCK) and methods of use” (H. Lee Moffitt Cancer Center and Research Institute, Inc., priority 2010, dated 2015):
Values joined by “and” are separate entries in the source; they are usually repeats but may differ in a detail not shown here. Equal entries are not always repeated. Structures can show the parent of a compound that is named as a salt.

Tests used:
ROCK2 = ROCK2 (Homo sapiens (Human), UniProt O75116); test: FRET-based Z'-Lyte kinase assay, ROCK2; assay type: biochemical; conditions: read-out: IC50 ± SD (μM) ROCK2;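 note: kinase phosphorylates a coumarin/fluorescein FRET peptide, then a protease cleaves unphosphorylated peptide, read as donor/acceptor emission ratio after 400 nm excitation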
Excerpt: (§1) A) In the primary reaction, the Rho kinases phosphorylates a single serine or threonine residue in a synthetic FRET-peptide. This FRET-peptide is doubly labeled with a fluorophore at each end—coumarin (the FRET donor) on one end and fluorescein (the FRET acceptor) on the other—and also contains a single phosphorylation site which either overlaps with or lies adjacent to the proteolytic site. B) In the secondary reaction, a site-specific protease recognizes and cleaves the non-phosphorylated FRET-peptide. Cleavage disrupts FRET between the donor and acceptor fluorophores on the FRET-peptide, whereas uncleaved, phosphorylated FRET-peptides maintain FRET. Kinases phosphorylated FRET-peptides cannot be cleaved by the protease. […] Cleavage disrupts FRET and causes a decrease in the fluorescein fluorescence signal and a strong increase in the coumarin fluorescence signal. Therefore the extension of the phosphprylation can be measured by FRET-signal remaining the protease reaction. The assay uses a ratiometric method, which calculates the ratio of donor emission to acceptor emission (the emission ratio) after excitation of the donor fluorophore at 400 nm, to quantitate reaction progress.
(§2) All compounds were systematically screened against ROCK1 and ROCK2.

ROCK1 = ROCK1 (Homo sapiens (Human), UniProt Q13464); test: FRET-based Z'-Lyte kinase assay, ROCK1; assay type: biochemical; conditions: for IC50: read-out: IC50 ± SD (μM) ROCK1; for fold decrease in ROCK1 activity/potency compared to parent compound 1aa: comparator 1aa; for inhibition at 50 µM: read-out: ROCK1 % inhibition @ 50 μM;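 for all read-outs here: kinase phosphorylates a coumarin/fluorescein-labelled FRET peptide, then a protease cleaves unphosphorylated peptide, progress read as donor to acceptor emission ratio after 400 nm excitation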
ROCK1, sequence (Q13464 whole entry, species assumed): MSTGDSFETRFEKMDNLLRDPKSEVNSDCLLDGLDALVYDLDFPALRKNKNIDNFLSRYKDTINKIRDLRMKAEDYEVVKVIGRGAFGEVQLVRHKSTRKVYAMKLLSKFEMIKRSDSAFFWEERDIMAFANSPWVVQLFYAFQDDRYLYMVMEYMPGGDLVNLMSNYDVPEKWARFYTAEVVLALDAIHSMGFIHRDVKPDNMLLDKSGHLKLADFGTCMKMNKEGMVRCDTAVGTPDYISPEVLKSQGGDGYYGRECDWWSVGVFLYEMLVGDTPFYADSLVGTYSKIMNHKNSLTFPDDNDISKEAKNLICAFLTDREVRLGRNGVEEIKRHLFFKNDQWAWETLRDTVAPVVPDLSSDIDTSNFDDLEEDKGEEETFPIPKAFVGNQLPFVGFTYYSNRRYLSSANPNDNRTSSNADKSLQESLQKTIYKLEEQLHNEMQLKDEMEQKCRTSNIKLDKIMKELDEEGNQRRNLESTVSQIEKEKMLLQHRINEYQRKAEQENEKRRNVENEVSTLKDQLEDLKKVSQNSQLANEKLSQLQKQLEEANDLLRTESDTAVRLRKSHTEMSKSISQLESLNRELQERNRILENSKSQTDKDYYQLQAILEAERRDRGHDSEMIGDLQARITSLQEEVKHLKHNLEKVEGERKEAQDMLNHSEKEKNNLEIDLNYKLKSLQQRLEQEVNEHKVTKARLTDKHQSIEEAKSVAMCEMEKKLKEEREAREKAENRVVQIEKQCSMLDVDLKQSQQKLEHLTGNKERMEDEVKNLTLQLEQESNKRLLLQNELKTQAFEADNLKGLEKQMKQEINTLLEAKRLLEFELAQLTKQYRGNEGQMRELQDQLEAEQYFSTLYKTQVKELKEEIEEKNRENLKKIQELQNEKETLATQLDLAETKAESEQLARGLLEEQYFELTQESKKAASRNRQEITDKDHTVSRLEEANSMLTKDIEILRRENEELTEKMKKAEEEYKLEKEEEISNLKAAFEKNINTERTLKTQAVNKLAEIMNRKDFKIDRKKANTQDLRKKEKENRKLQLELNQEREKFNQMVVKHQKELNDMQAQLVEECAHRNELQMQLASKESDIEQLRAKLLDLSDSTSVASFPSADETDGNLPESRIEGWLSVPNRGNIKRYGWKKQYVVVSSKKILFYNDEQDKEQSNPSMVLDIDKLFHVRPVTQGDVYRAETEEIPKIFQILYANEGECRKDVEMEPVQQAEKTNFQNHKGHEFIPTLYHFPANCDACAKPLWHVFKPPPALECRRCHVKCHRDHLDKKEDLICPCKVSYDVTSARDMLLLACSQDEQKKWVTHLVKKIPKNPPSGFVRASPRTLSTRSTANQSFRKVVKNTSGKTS
Excerpt: as §1, §2

ROCK2, sequence (O75116 whole entry, species assumed): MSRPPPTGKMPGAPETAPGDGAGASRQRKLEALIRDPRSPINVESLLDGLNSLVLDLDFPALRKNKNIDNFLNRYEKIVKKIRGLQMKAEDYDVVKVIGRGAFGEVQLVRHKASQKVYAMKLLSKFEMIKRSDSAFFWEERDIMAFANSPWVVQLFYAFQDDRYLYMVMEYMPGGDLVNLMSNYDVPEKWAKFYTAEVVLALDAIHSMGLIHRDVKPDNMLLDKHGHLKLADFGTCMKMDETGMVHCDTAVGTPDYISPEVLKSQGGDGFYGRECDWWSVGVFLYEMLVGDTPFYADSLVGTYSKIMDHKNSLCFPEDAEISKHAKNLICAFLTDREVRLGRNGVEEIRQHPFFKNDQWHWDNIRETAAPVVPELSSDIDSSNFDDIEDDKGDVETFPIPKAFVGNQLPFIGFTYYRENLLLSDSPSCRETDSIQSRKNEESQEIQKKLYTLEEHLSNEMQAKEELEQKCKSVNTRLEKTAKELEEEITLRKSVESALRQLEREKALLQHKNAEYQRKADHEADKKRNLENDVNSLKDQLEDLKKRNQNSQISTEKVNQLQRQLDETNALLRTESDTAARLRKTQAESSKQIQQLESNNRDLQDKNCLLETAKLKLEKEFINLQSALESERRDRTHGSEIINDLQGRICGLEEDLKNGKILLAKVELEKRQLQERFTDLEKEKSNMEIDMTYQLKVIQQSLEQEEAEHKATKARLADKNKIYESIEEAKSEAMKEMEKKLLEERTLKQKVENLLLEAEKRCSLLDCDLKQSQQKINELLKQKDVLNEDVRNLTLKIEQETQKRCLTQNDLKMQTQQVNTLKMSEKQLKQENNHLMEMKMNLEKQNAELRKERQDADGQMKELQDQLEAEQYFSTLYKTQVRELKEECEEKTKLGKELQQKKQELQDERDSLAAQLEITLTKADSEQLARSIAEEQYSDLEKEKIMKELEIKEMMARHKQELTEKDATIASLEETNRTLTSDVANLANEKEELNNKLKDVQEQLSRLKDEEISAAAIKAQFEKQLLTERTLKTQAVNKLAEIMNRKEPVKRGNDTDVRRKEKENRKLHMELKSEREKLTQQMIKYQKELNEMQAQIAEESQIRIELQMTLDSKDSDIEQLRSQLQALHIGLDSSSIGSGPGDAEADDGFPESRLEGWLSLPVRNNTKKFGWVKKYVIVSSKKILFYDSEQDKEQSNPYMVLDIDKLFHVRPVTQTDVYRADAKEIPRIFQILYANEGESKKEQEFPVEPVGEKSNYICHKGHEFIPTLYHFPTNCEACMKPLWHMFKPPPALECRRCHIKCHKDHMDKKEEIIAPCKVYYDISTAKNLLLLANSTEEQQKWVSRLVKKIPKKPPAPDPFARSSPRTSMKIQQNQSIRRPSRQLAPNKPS

Row | IC50 (ROCK2) | IC50 (ROCK1) | inhibition at 50 µM (ROCK1; 50 μM compound) [%] | SMILES | further results
1 | 0.18 ± 0.04 µM | 1.15 ± 0.39 µM |  | NC(=O)Nc1cccc(CNC(=O)Nc2nc(-c3ccncc3)cs2)c1 [Compound 1cj, hydrochloride] | 
2 | 0.38 ± 0.107 µM | 0.48 ± 0.037 µM |  | O=C(NCCc1ccccc1)Nc1nc(-c2ccncc2)cs1 [Compound 1aw, 1-Phenethyl-3-(4-(pyridin-4-yl)thiazol-2-yl)urea] | fold decrease in ROCK1 activity/potency compared to parent compound 1aa (ROCK1): 3 fold
3 | 2.1 ± 0.36 µM | 3.7 ± 0.5 µM |  | NC(=O)[C@H](NC(=O)Nc1nc(-c2ccncc2)cs1)c1ccccc1 [Compound 1bv, (R)-2-Phenyl-2-(3-(4-(pyridin-4-yl)thiazol-2-yl)ureido)acetamide] | 
4 | 0.07 ± 0.015 µM | 0.11 ± 0.003 µM |  | CN(Cc1ccccc1)C(=O)Nc1nc(-c2ccncc2)cs1 [Compound 1au, 1-Benzyl-1-methyl-3-(4-(pyridin-4-yl)thiazol-2-yl)urea] | 
5 | 0.19 µM | 0.57 ± 0.05 µM |  | O=C(NCc1ccc(F)cc1)Nc1nc(-c2ccncc2)cs1 [Compound 1ak, 1-(4-Fluorobenzyl)-3-(4-(pyridin-4-yl)thiazol-2-yl)urea] | 
6 | 11.9 ± 4.69 µM | > 50 µM |  | COc1ccc([C@@H](C)NC(=O)Nc2nc(-c3ccncc3)cs2)cc1 [Compound 1bz, (R)-1-(1-(4-methoxyphenyl)ethyl)-3-(4-(pyridin-4-yl)thiazol-2-yl)urea] | 
7 | 1.47 ± 0.13 µM | 2.07 ± 0.29 µM |  | O=C(NCc1ccncc1)Nc1nc(-c2ccncc2)cs1 [Compound 1aq, 1-(4-(Pyridin-4-yl)thiazol-2-yl)-3-(pyridin-4-ylmethyl)urea] | 
8 | 0.06 µM and 0.05 µM | 0.14 µM and 0.1 µM |  | O=C(NCc1cccc(F)c1)Nc1nc(-c2ccncc2)cs1 [Compound 1aj, 1-(3-Fluorobenzyl)-3-(4-(pyridin-4-yl)thiazol-2-yl)urea] | 
9 | 0.47 ± 0.03 µM | 1.4 ± 0.11 µM |  | COc1ccccc1CNC(=O)Nc1nc(-c2ccncc2)cs1 [Compound 1ad, 1-(2-Methoxybenzyl)-3-(4-(pyridin-4-yl)thiazol-2-yl)urea] | 
10 | 0.35 ± 0.08 µM | 0.92 ± 0.1 µM |  | O=C(NCc1cccc(OC(F)F)c1)Nc1nc(-c2ccncc2)cs1 [Compound 1bs, 1-(3-(Difluoromethoxy)benzyl)-3-(4-(pyridin-4-yl)thiazol-2-yl)urea] | 
11 | 2.05 ± 0.15 µM | 5.16 ± 0.51 µM |  | Cc1ccc(CNC(=O)Nc2nc(-c3ccncc3)cs2)cc1 [Compound 1bd, 1-(4-Methylbenzyl)-3-(4-(pyridin-4-yl)thiazol-2-yl)urea] | 
12 |  |  | -6.26 | O=C(NCc1cc(Cl)cc(Cl)c1)Nc1nc(-c2ccncc2)cs1 [Compound 1cg, 1-(3,5-dichlorobenzyl)-3-(4-(pyridin-4-yl)thiazol-2-yl)urea] | 
13 | 0.53 ± 0.1 µM | 1.87 ± 0.54 µM |  | O=C(Nc1nc(-c2ccncc2)cs1)NC(c1ccccc1)c1ccccc1 [Compound 1bi, 1-Benzhydryl-3-(4-(pyridin-4-yl)thiazol-2-yl)urea] | fold decrease in ROCK1 activity/potency compared to parent compound 1aa (ROCK1): 12 fold
14 | 2.67 ± 0.89 µM | 6.44 ± 1.67 µM |  | C[C@@H](c1ccccc1)N(C)C(=O)Nc1nc(-c2ccncc2)cs1 [Compound 1co, (S)-1-Methyl-1-(1-phenylethyl)-3-(4-(pyridin-4-yl)thiazol-2-yl)urea] | 
15 | 0.24 ± 0.04 µM | 0.47 ± 0.013 µM |  | CNc1cccc(CNC(=O)Nc2nc(-c3ccncc3)cs2)c1 [Compound 1bq, 1-(3-(Methylamino)benzyl)-3-(4-(pyridin-4-yl)thiazol-2-yl)urea] | 
16 | 0.24 ± 0.03 µM | 0.5 ± 0.05 µM |  | COCCOc1cccc(CNC(=O)Nc2nc(-c3ccncc3)cs2)c1 [Compound 1bm, 1-(3-(2-Methoxyethoxy)benzyl)-3-(4-(pyridin-4-yl)thiazol-2-yl)urea] | 
17 |  |  | 16.3 | O=C(NC(=O)c1ccccc1)Nc1nc(-c2ccncc2)cs1 [Compound 8, N-(4-(Pyridin-4-yl)thiazol-2-ylcarbamoyl)benzamide] | 
18 | 0.1 ± 0.03 µM | 0.56 ± 0.1 µM |  | CS(=O)(=O)Nc1cccc(CNC(=O)Nc2nc(-c3ccncc3)cs2)c1 [Compound 1ch, N-(3-β3-(4-(pyridin-4-yl)thiazol-2-yl)ureido)methyl)phenyl)-methanesulfonamide hydrochloride] | 
19 | 0.12 ± 0.03 µM | 0.46 ± 0.08 µM |  | Cc1cccc(CNC(=O)Nc2nc(-c3ccncc3)cs2)c1 [Compound 1ba, 1-(3-Methylbenzyl)-3-(4-(pyridin-4-yl)thiazol-2-yl)urea] | fold decrease in ROCK1 activity/potency compared to parent compound 1aa (ROCK1): 3 fold
20 | 0.03 ± 0.01 µM | 0.11 ± 0.01 µM |  | C[C@@H](NC(=O)Nc1nc(-c2ccncc2)cs1)c1cccc(F)c1 [Compound 1cc, (R)-1-(1-(3-fluorophenyl)ethyl)-3-(4-(pyridin-4-yl)thiazol-2-yl)urea] | fold less potent than 1ah (ROCK1; comparator 1ah): 3 fold
21 | 52.5 ± 1.75 µM | 28.2 ± 1.84 µM |  | O=C(Nc1nc(-c2ccncc2)cs1)N[C@@H]1CCc2ccccc21 [Compound 1ct, (R)-1-(2,3-Dihydro-1H-inden-1-yl)-3-(4-(pyridin-4-yl)thiazol-2-yl)urea] | 
22 | 0.58 ± 0.218 µM | 1.1 ± 0.202 µM |  | O=C(NCc1cccc2ccccc12)Nc1nc(-c2ccncc2)cs1 [Compound 1av, 1-(Naphthalen-1-ylmethyl)-3-(4-(pyridin-4-yl)thiazol-2-yl)urea] | 

Row | IC50 (ROCK2) | IC50 (ROCK1) | inhibition at 50 µM (ROCK1; 50 μM compound) [%] | SMILES | further results
23 |  |  | 14 | O=C(Nc1nc(-c2ccncc2)cs1)N1CCN(c2cccnc2)CC1 [Compound 12e, 4-(Pyridin-3-yl)-N-(4-(pyridin-4-yl)thiazol-2-yl)piperazine-1-carboxamide] | 
24 | 0.009 ± 0.007 µM |  |  | COc1cccc([C@@H](C)NC(=O)Nc2nc(-c3ccncc3)cs2)c1 [Compound 1bh, (R)-1-(1-(3-Methoxyphenyl)ethyl)-3-(4-(pyridin-4-yl)thiazol-2-yl)urea] | 
25 | 19.7 ± 2.94 µM | 35.4 ± 6.78 µM |  | COc1cccc(CNC(=O)Nc2nc(-c3ccncc3)cs2)c1OC [Compound 1bc, 1-(2,3-Dimethoxybenzyl)-3-(4-(pyridin-4-yl)thiazol-2-yl)urea] | 
26 | 1.44 ± 0.22 µM | 1.82 ± 0.18 µM |  | O=C(NCc1ccccn1)Nc1nc(-c2ccncc2)cs1 [Compound 1ap, 1-(Pyridin-2-ylmethyl)-3-(4-(pyridin-4-yl)thiazol-2-yl)urea] | 
27 | 1.83 ± 0.56 µM | 3.21 ± 0.9 µM |  | O=C(Nc1nc(-c2ccncc2)cs1)N[C@H]1CCc2ccccc21 [Compound 1cu, (S)-1-(2,3-Dihydro-1H-inden-1-yl)-3-(4-(pyridin-4-yl)thiazol-2-yl)urea] | 
28 |  |  | 13.3 | O=C(Nc1nc(-c2ccncc2)cs1)Nc1ccccc1F [Compound 6d, 1-(2-Fluorophenyl)-3-(4-(pyridin-4-yl)thiazol-2-yl)urea] | 
29 |  | > 50 µM |  | C[C@H](NC(=O)Nc1nc(-c2ccncc2)cs1)c1cccc(Cl)c1 [Compound 1ce, (S)-1-(1-(3-chlorophenyl)ethyl)-3-(4-(pyridin-4-yl)thiazol-2-yl)urea] | 
30 |  |  | 14.5 | O=C(Nc1nc(-c2ccncc2)cs1)Nc1ccc(F)cc1F [Compound 6b, 1-(2,4-Difluorophenyl)-3-(4-(pyridin-4-yl)thiazol-2-yl)urea] | 
31 |  |  | 34.5 | O=C(NCc1ccc([N+](=O)[O-])cc1)Nc1nc(-c2ccncc2)cs1 [Compound 1az, 1-(4-Nitrobenzyl)-3-(4-(pyridin-4-yl)thiazol-2-yl)urea] | 
32 |  |  | 1.09 | COc1ccc([C@H](C)NC(=O)Nc2nc(-c3ccncc3)cs2)cc1 [Compound 1by, (S)-1-(1-(4-methoxyphenyl)ethyl)-3-(4-(pyridin-4-yl)thiazol-2-yl)urea] | 
33 |  |  | 9.95 | COc1cc(CNC(=O)Nc2nc(-c3ccncc3)cs2)cc(OC)c1 [Compound 1bb, 1-(3,5-Dimethoxybenzyl)-3-(4-(pyridin-4-yl)thiazol-2-yl)urea] | 
34 |  |  | -0.21 | O=C(Nc1nc(-c2ccncc2)cs1)N1CCN(CC2CCCO2)CC1 (centres unmarked) [Compound 12f, N-(4-(Pyridin-4-yl)thiazol-2-yl)-4-((tetrahydrofuran-2-yl)methyl)piperazine-1-carboxamide] | 
35 |  | 0.009 µM |  | O=C(NCc1cccc(O)c1)Nc1nc(-c2ccncc2)cs1 [Compound 1bo-HCl, 1-(3-hydroxybenzyl)-3-(4-(pyridin-4-yl)thiazol-2-yl)urea] | 
36 |  |  | 10.4 | O=C(Nc1ccccc1)Nc1nc(-c2ccncc2)cs1 [Compound 6a, 1-Phenyl-3-(4-(pyridin-4-yl)thiazol-2-yl)urea] | 
37 |  |  | 40.9 | O=C(NCc1nc2ccccc2[nH]1)Nc1nc(-c2ccncc2)cs1 [Compound 1cs, 1-((1H-Benzo[d]imidazol-2-yl)methyl)-3-(4-(pyridin-4-yl)thiazol-2-yl)urea] | 
38 |  |  | 8.06 | O=C(Nc1ccc(F)cc1)Nc1nc(-c2ccncc2)cs1 [Compound 6c, 1-(4-Fluorophenyl)-3-(4-(pyridin-4-yl)thiazol-2-yl)urea] | 
39 |  |  | 7.48 | O=C(NCc1cccc(OC(F)(F)F)c1)Nc1nc(-c2ccncc2)cs1 [Compound 1br, 1-(4-(Pyridin-4-yl)thiazol-2-yl)-3-(3-(trifluoromethoxy)benzyl)urea] | 
40 |  |  | 41.4 | O=C(Nc1nc(-c2ccncc2)cs1)N1CCN(c2ccncn2)CC1 [Compound 12d, N-(4-(Pyridin-4-yl)thiazol-2-yl)-4-(pyrimidin-4-yl)piperazine-1-carboxamide] | 
41 |  |  | 35 | O=C(Nc1nc(-c2ccncc2)cs1)N1CCN(C(=O)c2ccco2)CC1 [Compound 12c, 4-(Furan-2-carbonyl)-N-(4-(pyridin-4-yl)thiazol-2-yl)piperazine-1-carboxamide] | 
42 |  |  |  | COc1ccc(CNC(=O)Nc2nc(-c3ccncc3)cs2)cc1.Cl [Compound 1am-HCl, 1-(4-methoxybenzyl)-3-(4-(pyridin-4-yl)thiazol-2-yl)urea hydrochloride] | ROCK1 % inhibition @ 50 μM (ROCK1; 50 μM compound): ROCK1 % inhibition @ 50 μM: 15.26 ± 0.91
43 |  |  | 24.3 | O=C(Nc1nc(-c2ccncc2)cs1)N1CCN(Cc2ccccc2)C[C@@H]1Cc1ccccc1 [Compound 12b, (S)-2,4-Dibenzyl-N-(4-(pyridin-4-yl)thiazol-2-yl)piperazine-1-carboxamide] | 
44 |  |  | 40.9 | O=C(Nc1nc(-c2ccncc2)cs1)NC1Cc2ccccc2C1 [Compound 1cr, 1-(2,3-Dihydro-1H-inden-2-yl)-3-(4-(pyridin-4-yl)thiazol-2-yl)urea] | 
